Article PMC8617031, “Development of a BCL-xL and BCL-2 dual degrader with improved anti-leukemic activity,” (Nature Communications, 2021)
pIC50: −log10 of the molar value. Values joined by “and” are separate entries in the source; they are usually repeats but may differ in a detail not shown here. Equal values may be shown once. Read-outs that look alike come from different tables or passages of the source.

Assays:
His-tagged BCL-xL = biological target: T1, His-tagged BCL-xL (Homo sapiens, UniProt Q07817); experiment: AlphaScreen competitive binary binding, BCL-xL (biotin-BAD peptide)
T1 construct: purchased Sigma-Aldrich SRP0187
T1 sequence (Q07817 whole entry): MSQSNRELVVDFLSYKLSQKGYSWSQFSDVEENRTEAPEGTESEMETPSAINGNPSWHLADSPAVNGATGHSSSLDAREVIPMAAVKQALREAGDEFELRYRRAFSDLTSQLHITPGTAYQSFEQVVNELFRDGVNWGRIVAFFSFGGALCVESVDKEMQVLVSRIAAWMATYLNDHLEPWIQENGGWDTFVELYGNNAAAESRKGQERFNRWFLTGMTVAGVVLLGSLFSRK
Procedure: The reagents were diluted in a buffer containing 250 mM HEPES pH 7.5, 1 M NaCl, 1% BSA, and 0.05% Tween-80. His-tagged BCL-xL (0.5 nM, Cat. No. SRP0187, Sigma-Aldrich) or BCL-2 (1 nM, Cat. No. SRP0186, Sigma-Aldrich) were incubated with serial diluted 753a or 753b and 2 nM biotin-tagged BAD (biotin-[…] amino-terminal, AnaSpec, for BCL-xL) or 10 nM BIM peptides (biotin-[…] N-terminal, AnaSpec, for BCL-2) to a final volume of 40 µl in a 96-well PCR plate. […] After incubation for 2 h, 5 µl 6× His-acceptor beads (Cat. No. AL128M, PerkinElmer) were added to each well at 20 µg/ml final concentration and incubated for 1 h. Then 5 µl streptavidin-donor beads were added (Cat. No. 6760002, PerkinElmer) to each well at 20 µg/ml final concentration and incubated for 45 min. At the end of the incubation period, 17 µl of each sample was transferred in adjacent wells of 384-well proxy plate (Cat. No. 6008280, PerkinElmer). The plate was scanned using the Alpha program on Biotek’s Synergy Neo2 multimode plate reader. The inhibition constant (Ki) was calculated using the non-linear regression, one site, competitive binding, Fit Ki function on GraphPad Prism 9 software, based on experimentally determined dissociation constant (Kd) for each protein–peptide pair.

293T cells = experiment: Viability (MTS) of 293T cells; format: cell-based, human; details: normalised to own plate; for 293T cell viability, MTS absorbance 490 as percent of untreated control, mean of three wells: mean of 3 wells
Procedure: Suspension cells were treated 30 min after seeding, whereas adherent cells were allowed to adhere overnight and were then treated. Compound treatments were prepared in complete cell culture medium and 100 µl of 2× treatment-containing medium were added to each well. Complete cell culture medium without treatment was added in control wells, and wells containing medium without cells served as background. The outer wells of the 96-well plate were not used for treatment and were filled with 250 µl of PBS to reduce evaporation of medium from inner wells. Each compound and/or combination was tested at nine different concentrations with three replicates. The cell viability was measured after 72 h by tetrazolium-based MTS assay. MTS reagent (2 mg ml^–1 stock; cat. no. G1111, Promega) was freshly supplemented with phenazine methosulfate (PMS, 0.92 mg ml^–1 stock, cat. no. P9625, Sigma-Aldrich) in 20:1 ratio, and 20 µl of this mixture was added to each control and treatment well. The cells were incubated for 4 h at 37 °C and 5% CO2, and then the absorbance was recorded at 490 nm using Biotek’s Synergy Neo2 multimode plate reader (Biotek). The average absorbance value of background wells was subtracted from absorbance value of each control and treatment well, and percent cell viability ((At/A0) × 100)) was determined in each treatment well, where At is the absorbance value of the treatment well and A0 is the average absorbance value of control wells after background subtraction. The data were expressed as average percentage cell viability and fitted in non-linear regression curves using GraphPad Prism 7 (GraphPad Software, La Jolla, CA, USA).

Kasumi-1 cells = experiment: Viability (MTS) of Kasumi-1 AML cells; format: cell-based, human; details: for viability at 0.0411523 µM / viability at 0.37037 µM / viability at 1.11111 µM / viability at 3.33333 µM / viability at 10 µM / viability at […] / pIC50: Homo sapiens; for viability at 0.0411523 µM: Kasumi 1, Concentration 0.0411523 uM; for viability at 0.0411523 µM / viability at 0.37037 µM / viability at 1.11111 µM / viability at 3.33333 µM / viability at 10 µM / viability at […]: Supplementary Fig. 12b; for viability at 0.37037 µM: Kasumi 1, Concentration 0.37037 uM; for viability at 1.11111 µM: Kasumi 1, Concentration 1.11111 uM; for viability at 3.33333 µM: Kasumi 1, Concentration 3.33333 uM; for viability at 10 µM: Kasumi 1, Concentration 10 uM; for viability at […]: Kasumi 1, Concentration […]; for pIC50: Kasumi 1, 72 h
[1] = Average of 3 wells, read-out: MTS viability, percent of 0 uM control, Average
[2] = single well, read-out: MTS viability, corrected absorbance 490 as percent of 0 uM control

CC1(C)CCC(c2ccc(Cl)cc2)=C(CN2CCN(c3ccc(C(=O)NS(=O)(=O)c4ccc(N[C@H](CCN5CCOCC5)CSc5ccccc5)c(S(=O)(=O)C(F)(F)F)c4)cc3)CC2)C1 [ABT263, navitoclax]
Alpha signal normalised to Maximum/Minimum (inhibition) (His-tagged BCL-xL; BCL-xL Rep-2, 0.00488281 uM, 0.00488281 µM): 45.5298 | inhibition at 0.00488281 µM (His-tagged BCL-xL; BCL-xL Rep-2, 0.00488281 uM, read-out: Alpha signal normalised to Maximum/Minimum (inhibition)): 46% | Alpha signal normalised to Maximum/Minimum (inhibition) (His-tagged BCL-xL; BCL-xL Rep-2, 0.0195312 uM, 0.0195312 µM): 63.2992 | inhibition at 0.0195312 µM (His-tagged BCL-xL; BCL-xL Rep-2, 0.0195312 uM, read-out: Alpha signal normalised to Maximum/Minimum (inhibition)): 60.9% | Alpha signal normalised to Maximum/Minimum (inhibition) (His-tagged BCL-xL; BCL-xL Rep-2, 0.078125 uM, 0.078125 µM): 91.4929 | inhibition at 0.078125 µM (His-tagged BCL-xL; BCL-xL Rep-2, 0.078125 uM, read-out: Alpha signal normalised to Maximum/Minimum (inhibition)): 89.7% | Alpha signal normalised to Maximum/Minimum (inhibition) (His-tagged BCL-xL; BCL-xL Rep-2, 0.3125 uM, 0.3125 µM): 98.2227 | inhibition at 0.3125 µM (His-tagged BCL-xL; BCL-xL Rep-2, 0.3125 uM, read-out: Alpha signal normalised to Maximum/Minimum (inhibition)): 97.4% | Alpha signal normalised to Maximum/Minimum (inhibition) (His-tagged BCL-xL; BCL-xL Rep-2, 1.25 uM, 1.25 µM): 99.5826 | inhibition at 1.25 µM (His-tagged BCL-xL; BCL-xL Rep-2, 1.25 uM, read-out: Alpha signal normalised to Maximum/Minimum (inhibition)): 100% | Alpha signal normalised to Maximum/Minimum (inhibition) (His-tagged BCL-xL; BCL-xL Rep-2, 5 uM, 5 µM): 99.8318 | inhibition at 5 µM (His-tagged BCL-xL; BCL-xL Rep-2, 5 uM, read-out: Alpha signal normalised to Maximum/Minimum (inhibition)): 99% | Alpha signal (raw counts) (His-tagged BCL-xL; BCL-xL Rep-2, plate row B, 5 uM): 36635 and 25525 | Alpha signal (raw counts) (His-tagged BCL-xL; BCL-xL Rep-2, plate row C, 1.25 uM): 22256 and 28959 | Alpha signal (raw counts) (His-tagged BCL-xL; BCL-xL Rep-2, plate row D, 0.3125 uM): 58501 and 47695 | Alpha signal (raw counts) (His-tagged BCL-xL; BCL-xL Rep-2, plate row E, 0.078125 uM): 165323 and 140416 | Alpha signal (raw counts) (His-tagged BCL-xL; BCL-xL Rep-2, plate row F, 0.0195312 uM): 561843 and 528857 | Alpha signal (raw counts) (His-tagged BCL-xL; BCL-xL Rep-2, plate row G, 0.00488281 uM): 767546 and 773677 | Alpha signal (raw counts) (His-tagged BCL-xL; BCL-xL Rep-2, plate row H, 0.0012207 uM): 1070160 and 1175743 | Alpha signal (raw counts) (His-tagged BCL-xL; BCL-xL Rep-2, plate row I, 0.000305176 uM): 1221423 and 1198497 | Alpha signal (raw counts) (His-tagged BCL-xL; BCL-xL Rep-2, plate row K, 1.90735e-5 uM): 1346687 and 1389856 | 293T cell viability, MTS absorbance 490 as percent of untreated control, mean of three wells (293T cells; 0.00137174 uM): 97.7794 | 293T cell viability, MTS absorbance 490 as percent of untreated control, single replicate well (293T cells; 0.00137174 uM): 98.6099 and 98.5015 | 293T cell viability, MTS absorbance 490 as percent of untreated control, mean of three wells (293T cells; 0.00411523 uM): 103.484 | 293T cell viability, MTS absorbance 490 as percent of untreated control, single replicate well (293T cells; 0.00411523 uM): 107.709 and 108.359 | 293T cell viability, MTS absorbance 490 as percent of untreated control, single replicate well (293T cells; 0.037037 uM): 116.375 and 110.092 | 293T cell viability, MTS absorbance 490 as percent of untreated control, single replicate well (293T cells; 0.111111 uM): 96.1184 and 122.874 and 120.166 | 293T cell viability, MTS absorbance 490 as percent of untreated control, single replicate well (293T cells; 0.333333 uM): 101.968 and 111.934 | 293T cell viability, MTS absorbance 490 as percent of untreated control, single replicate well (293T cells; 1 uM): 97.2017 and 104.893 | 293T cell viability, MTS absorbance 490 as percent of untreated control, single replicate well (293T cells; 3 uM): 60.8052 and 61.6718 | Luminescence (raw plate reading) (Kasumi-1 cells; 3.90625 nM (plate column 2), Fig. 7a): 652130 and 630259 and 658966 and 744397 | Luminescence (raw plate reading) (Kasumi-1 cells; 7.8125 nM (plate column 3), Fig. 7a): 632892 and 633903 and 634701 and 712997 | Luminescence (raw plate reading) (Kasumi-1 cells; 15.625 nM (plate column 4), Fig. 7a): 642408 and 622919 and 622003 and 704279 | Luminescence (raw plate reading) (Kasumi-1 cells; 31.25 nM (plate column 5), Fig. 7a): 622577 and 612176 and 601421 and 652847 | Luminescence (raw plate reading) (Kasumi-1 cells; 62.5 nM (plate column 6), Fig. 7a): 542999 and 553178 and 531814 and 597127 | Luminescence (raw plate reading) (Kasumi-1 cells; 125 nM (plate column 7), Fig. 7a): 381320 and 423693 and 412676 and 432347 | Luminescence (raw plate reading) (Kasumi-1 cells; 250 nM (plate column 8), Fig. 7a): 247450 and 230935 and 221189 and 256346 | Luminescence (raw plate reading) (Kasumi-1 cells; 500 nM (plate column 9), Fig. 7a): 119937 and 119731 and 112901 and 107498 | Luminescence (raw plate reading) (Kasumi-1 cells; 1000 nM (plate column 10), Fig. 7a): 56843 and 48094 and 45547 and 41795 | Luminescence (raw plate reading) (Kasumi-1 cells; 2000 nM = 2U (plate column 11), Fig. 7a): 20891 and 18712 and 20895 and 17813 | Luminescence (raw plate reading) (Kasumi-1 cells; 4000 nM = 4U (plate column 12), Fig. 7a): 11066 and 13361 and 10294 and 10997 | Luminescence normalised to mean of the 0 concentration wells (= 100), viability (Kasumi-1 cells; 3.90625 (nM), Fig. 7a): 95.2795 and 92.0841 and 96.2783 and 108.76 | Luminescence normalised to mean of the 0 concentration wells (= 100), viability (Kasumi-1 cells; 7.8125 (nM), Fig. 7a): 92.4688 and 92.6165 and 92.7331 and 104.173 | Luminescence normalised to mean of the 0 concentration wells (= 100), viability (Kasumi-1 cells; 15.625 (nM), Fig. 7a): 93.8591 and 91.0117 and 90.8778 and 102.899 | Luminescence normalised to mean of the 0 concentration wells (= 100), viability (Kasumi-1 cells; 31.25 (nM), Fig. 7a): 90.9617 and 89.442 and 87.8707 and 95.3843 | Luminescence normalised to mean of the 0 concentration wells (= 100), viability (Kasumi-1 cells; 62.5 (nM), Fig. 7a): 79.3349 and 80.8221 and 77.7007 and 87.2433 | Luminescence normalised to mean of the 0 concentration wells (= 100), viability (Kasumi-1 cells; 125 (nM), Fig. 7a): 55.7128 and 61.9037 and 60.2941 and 63.1681 | Luminescence normalised to mean of the 0 concentration wells (= 100), viability (Kasumi-1 cells; 250 (nM), Fig. 7a): 36.1537 and 33.7408 and 32.3168 and 37.4535 | Luminescence normalised to mean of the 0 concentration wells (= 100), viability (Kasumi-1 cells; 500 (nM), Fig. 7a): 17.5234 and 17.4933 and 16.4954 and 15.706 | Luminescence normalised to mean of the 0 concentration wells (= 100), viability (Kasumi-1 cells; 1000 (nM), Fig. 7a): 8.305 and 7.027 and 6.655 and 6.106 | Luminescence normalised to mean of the 0 concentration wells (= 100), viability (Kasumi-1 cells; 2000 (nM, 2U), Fig. 7a): 3.052 and 2.734 and 3.053 and 2.603 | Luminescence normalised to mean of the 0 concentration wells (= 100), viability (Kasumi-1 cells; 4000 (nM, 4U), Fig. 7a): 1.6168 and 1.952 and 1.504 and 1.607 | viability at 0.0411523 µM (Kasumi-1 cells; [1]): 92.4% | viability at 0.0411523 µM (Kasumi-1 cells; [2]): 91% | viability at 0.37037 µM (Kasumi-1 cells; [1]): 20.7% | viability at 0.37037 µM (Kasumi-1 cells; [2]): 21.4% | viability at 1.11111 µM (Kasumi-1 cells; [1]): 18% | viability at 1.11111 µM (Kasumi-1 cells; [2]): 16.5% | viability at 3.33333 µM (Kasumi-1 cells; [1]): 13.1% | viability at 3.33333 µM (Kasumi-1 cells; [2]): 13.4% | viability at 10 µM (Kasumi-1 cells; [1]): 12.1% | viability at 10 µM (Kasumi-1 cells; [2]): 12.3% | viability at […] (Kasumi-1 cells; [1]): 78.8% | viability at […] (Kasumi-1 cells; [2]): 78.2% | pIC50 (Kasumi-1 cells; Fig. 7a, read-out: IC50, viability of Kasumi-1 AML cells): 6.81 | pIC50 (Kasumi-1 cells; Fig. 7c, read-out: IC50, viability of Kasumi-1 cells): 6.88
